Measured values as given in the NIST ThermoML archive (doi:10.1016/j.jct.2009.02.002).
± gives the expanded uncertainty stated by the source.

Experiment: xn = mol fraction of the nth substance listed
Conditions: 101 kPa, Liquid; for viscosity: Capillary tube (Ostwald / Ubbelohde) method; for mass density: Vibrating tube method; for speed of sound: automatically measured using an Anton Paar DSA 5000 instrument

CC(C)CCCC(C)CCCC(C)CCCCC(C)CCCC(C)CCCC(C)C (configuration not stated) [2,6,10,15,19,23-hexamethyltetracosane] + CC(C)CO
Conditions | mass density, 298.15 K [kg/m3] | mass density, 303.15 K [kg/m3] | mass density, 308.15 K [kg/m3] | speed of sound, 298.15 K [m/s] | speed of sound, 303.15 K [m/s] | speed of sound, 308.15 K [m/s] | viscosity, 298.15 K [mPa·s] | viscosity, 303.15 K [mPa·s] | viscosity, 308.15 K [mPa·s]
x2 = 0.0803 | 804.648 ± 0.14 | 801.388 ± 0.14 | 798.13 ± 0.14 | 1377 ± 0.5 | 1359.1 ± 0.5 | 1341.4 ± 0.5 | 23.81 ± 0.12 | 18.82 ± 0.095 | 15.28 ± 0.079
x2 = 0.1032 | 804.528 ± 0.14 | 801.259 ± 0.14 | 797.982 ± 0.14 | 1375.6 ± 0.5 | 1357.7 ± 0.5 | 1340 ± 0.5 | 22.85 ± 0.11 | 18.11 ± 0.092 | 14.72 ± 0.076
x2 = 0.1672 | 804.219 ± 0.14 | 800.916 ± 0.14 | 797.596 ± 0.14 | 1371.4 ± 0.5 | 1353.4 ± 0.5 | 1335.6 ± 0.5 | 20.71 ± 0.1 | 16.5 ± 0.084 | 13.45 ± 0.07
x2 = 0.2045 | 804.051 ± 0.14 | 800.733 ± 0.14 | 797.401 ± 0.14 | 1368.7 ± 0.5 | 1350.8 ± 0.5 | 1332.9 ± 0.5 | 19.78 ± 0.099 | 15.78 ± 0.081 | 12.85 ± 0.067
x2 = 0.2551 | 803.824 ± 0.14 | 800.484 ± 0.14 | 797.129 ± 0.14 | 1364.9 ± 0.5 | 1347.2 ± 0.5 | 1329.2 ± 0.5 | 18.76 ± 0.094 | 14.97 ± 0.077 | 12.18 ± 0.064
x2 = 0.3201 | 803.546 ± 0.14 | 800.183 ± 0.14 | 796.807 ± 0.14 | 1359.9 ± 0.5 | 1341.8 ± 0.5 | 1324 ± 0.5 | 17.7 ± 0.089 | 14.12 ± 0.073 | 11.47 ± 0.06
x2 = 0.417 | 803.131 ± 0.14 | 799.716 ± 0.14 | 796.307 ± 0.14 | 1351.3 ± 0.5 | 1333.4 ± 0.5 | 1315.5 ± 0.5 | 16.34 ± 0.083 | 12.99 ± 0.068 | 10.54 ± 0.056
x2 = 0.4978 | 802.728 ± 0.14 | 799.277 ± 0.14 | 795.831 ± 0.14 | 1343.1 ± 0.5 | 1325.1 ± 0.5 | 1307.2 ± 0.5 | 15.11 ± 0.077 | 12 ± 0.063 | 9.757 ± 0.053
x2 = 0.6316 | 801.934 ± 0.14 | 798.413 ± 0.14 | 794.872 ± 0.14 | 1325.5 ± 0.5 | 1307.7 ± 0.5 | 1290.1 ± 0.5 | 12.54 ± 0.065 | 9.98 ± 0.053 | 8.196 ± 0.045
x2 = 0.7005 | 801.422 ± 0.14 | 797.855 ± 0.14 | 794.26 ± 0.14 | 1313.6 ± 0.5 | 1295.9 ± 0.5 | 1278.1 ± 0.5 | 10.9 ± 0.058 | 8.721 ± 0.048 | 7.217 ± 0.041
x2 = 0.8028 | 800.494 ± 0.14 | 796.852 ± 0.14 | 793.147 ± 0.14 | 1289.2 ± 0.5 | 1271.7 ± 0.5 | 1254.1 ± 0.5 | 8.199 ± 0.045 | 6.648 ± 0.038 | 5.581 ± 0.033
x2 = 0.8482 | 800.015 ± 0.14 | 796.317 ± 0.14 | 792.582 ± 0.14 | 1274.6 ± 0.5 | 1257.1 ± 0.5 | 1239.6 ± 0.5 | 6.959 ± 0.04 | 5.693 ± 0.034 | 4.802 ± 0.029
x2 = 0.9095 | 799.392 ± 0.14 | 795.551 ± 0.14 | 791.791 ± 0.14 | 1248.9 ± 0.5 | 1231.6 ± 0.5 | 1214.3 ± 0.5 | 5.361 ± 0.032 | 4.404 ± 0.027 | 3.728 ± 0.023
x2 = 0.9448 | 799.012 ± 0.14 | 795.162 ± 0.14 | 791.339 ± 0.14 | 1229.5 ± 0.6 | 1212.5 ± 0.6 | 1195.4 ± 0.6 | 4.53 ± 0.028 | 3.703 ± 0.023 | 3.115 ± 0.019

CCCCCCCCCCCCCCCC [hexadecane] + CC(C)CO
Conditions | mass density, 298.15 K [kg/m3] | mass density, 303.15 K [kg/m3] | mass density, 308.15 K [kg/m3] | speed of sound, 298.15 K [m/s] | speed of sound, 303.15 K [m/s] | speed of sound, 308.15 K [m/s] | viscosity, 298.15 K [mPa·s] | viscosity, 303.15 K [mPa·s] | viscosity, 308.15 K [mPa·s]
x2 = 0.0505 | 770.506 ± 0.15 | 766.982 ± 0.15 | 763.479 ± 0.15 | 1333.6 ± 0.5 | 1314.5 ± 0.5 | 1296.1 ± 0.5 | 2.807 ± 0.017 | 2.494 ± 0.016 | 2.233 ± 0.014
x2 = 0.108 | 770.704 ± 0.15 | 767.145 ± 0.15 | 763.586 ± 0.15 | 1328.2 ± 0.5 | 1309.5 ± 0.5 | 1291.1 ± 0.5 | 2.658 ± 0.016 | 2.345 ± 0.015 | 2.102 ± 0.014
x2 = 0.1539 | 770.945 ± 0.15 | 767.37 ± 0.15 | 763.784 ± 0.15 | 1324.2 ± 0.5 | 1305.5 ± 0.5 | 1287 ± 0.5 | 2.601 ± 0.016 | 2.277 ± 0.014 | 2.023 ± 0.013
x2 = 0.2202 | 771.403 ± 0.15 | 767.797 ± 0.15 | 764.189 ± 0.15 | 1318.4 ± 0.5 | 1299.8 ± 0.5 | 1281.3 ± 0.5 | 2.576 ± 0.016 | 2.246 ± 0.014 | 1.975 ± 0.013
x2 = 0.2709 | 771.834 ± 0.15 | 768.215 ± 0.15 | 764.58 ± 0.15 | 1313.8 ± 0.5 | 1295.1 ± 0.5 | 1276.6 ± 0.5 | 2.596 ± 0.016 | 2.235 ± 0.014 | 1.952 ± 0.013
x2 = 0.3389 | 772.519 ± 0.15 | 768.878 ± 0.15 | 765.22 ± 0.15 | 1307.3 ± 0.5 | 1288.7 ± 0.5 | 1270.2 ± 0.5 | 2.638 ± 0.016 | 2.252 ± 0.014 | 1.946 ± 0.013
x2 = 0.4112 | 773.437 ± 0.15 | 769.755 ± 0.15 | 766.075 ± 0.15 | 1299.9 ± 0.5 | 1281.3 ± 0.5 | 1262.8 ± 0.5 | 2.672 ± 0.017 | 2.292 ± 0.015 | 1.967 ± 0.013
x2 = 0.5043 | 774.946 ± 0.15 | 771.22 ± 0.15 | 767.482 ± 0.15 | 1289.8 ± 0.5 | 1271.2 ± 0.5 | 1252.8 ± 0.5 | 2.694 ± 0.017 | 2.296 ± 0.015 | 1.985 ± 0.013
x2 = 0.5989 | 776.918 ± 0.15 | 773.158 ± 0.15 | 769.37 ± 0.15 | 1277.8 ± 0.5 | 1259.3 ± 0.5 | 1241 ± 0.5 | 2.676 ± 0.017 | 2.295 ± 0.015 | 1.998 ± 0.013
x2 = 0.6938 | 779.505 ± 0.15 | 775.707 ± 0.15 | 771.873 ± 0.15 | 1263.6 ± 0.5 | 1245.3 ± 0.5 | 1227.4 ± 0.5 | 2.643 ± 0.016 | 2.274 ± 0.014 | 1.984 ± 0.013
x2 = 0.8115 | 783.946 ± 0.15 | 780.177 ± 0.15 | 776.274 ± 0.15 | 1241.5 ± 0.5 | 1223.8 ± 0.5 | 1206.2 ± 0.5 | 2.673 ± 0.017 | 2.28 ± 0.015 | 2 ± 0.013
x2 = 0.8638 | 786.74 ± 0.14 | 782.888 ± 0.15 | 778.972 ± 0.15 | 1229.5 ± 0.5 | 1211.9 ± 0.5 | 1194.4 ± 0.5 | 2.756 ± 0.017 | 2.322 ± 0.015 | 2.009 ± 0.013
x2 = 0.9037 | 789.326 ± 0.14 | 785.457 ± 0.15 | 781.543 ± 0.15 | 1219 ± 0.5 | 1201.6 ± 0.5 | 1184.3 ± 0.5 | 2.874 ± 0.018 | 2.379 ± 0.015 | 2.046 ± 0.013
x2 = 0.938 | 792.003 ± 0.14 | 788.12 ± 0.14 | 784.196 ± 0.15 | 1209.3 ± 0.5 | 1192.2 ± 0.5 | 1175.2 ± 0.5 | 3.023 ± 0.019 | 2.469 ± 0.016 | 2.082 ± 0.014
